Experimental data published in ChEMBL document CHEMBL5291721, “A preclinical secondary pharmacology resource illuminates target-adverse drug reaction associations of marketed drugs” (Nat Commun, 2023).

Assays:
[1] = biological target: cGMP-inhibited 3',5'-cyclic phosphodiesterase 3A (Homo sapiens, UniProt Q14432); assay type: functional
Cannabinoid receptor 1 [2] = biological target: T1, Cannabinoid receptor 1 (Homo sapiens, UniProt P21554); assay type: functional, cell-based
[3] = biological target: T2, Prostaglandin G/H synthase 1 (Rattus norvegicus, UniProt Q63921); assay type: functional
T2 sequence (Q63921 whole entry): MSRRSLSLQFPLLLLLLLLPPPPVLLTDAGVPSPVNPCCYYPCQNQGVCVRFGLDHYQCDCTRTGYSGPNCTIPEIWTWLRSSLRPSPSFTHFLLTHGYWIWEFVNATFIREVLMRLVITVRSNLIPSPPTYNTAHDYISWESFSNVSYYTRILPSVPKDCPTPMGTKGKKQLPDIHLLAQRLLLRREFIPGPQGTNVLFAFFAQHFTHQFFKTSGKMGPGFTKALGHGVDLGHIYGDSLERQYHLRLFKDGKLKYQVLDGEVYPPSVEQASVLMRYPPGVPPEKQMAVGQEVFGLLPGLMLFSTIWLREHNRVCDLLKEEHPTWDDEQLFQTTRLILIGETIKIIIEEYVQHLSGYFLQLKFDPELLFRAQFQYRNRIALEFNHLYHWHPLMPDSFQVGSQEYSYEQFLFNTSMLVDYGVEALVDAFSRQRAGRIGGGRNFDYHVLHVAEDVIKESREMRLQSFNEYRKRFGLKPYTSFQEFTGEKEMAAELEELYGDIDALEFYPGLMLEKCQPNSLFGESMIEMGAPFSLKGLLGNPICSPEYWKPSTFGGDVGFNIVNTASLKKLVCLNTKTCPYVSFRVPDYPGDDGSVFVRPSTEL

Adenosine receptor A1 = biological target: T3, Adenosine receptor A1 (Homo sapiens, UniProt P30542)
T3 sequence (P30542 whole entry): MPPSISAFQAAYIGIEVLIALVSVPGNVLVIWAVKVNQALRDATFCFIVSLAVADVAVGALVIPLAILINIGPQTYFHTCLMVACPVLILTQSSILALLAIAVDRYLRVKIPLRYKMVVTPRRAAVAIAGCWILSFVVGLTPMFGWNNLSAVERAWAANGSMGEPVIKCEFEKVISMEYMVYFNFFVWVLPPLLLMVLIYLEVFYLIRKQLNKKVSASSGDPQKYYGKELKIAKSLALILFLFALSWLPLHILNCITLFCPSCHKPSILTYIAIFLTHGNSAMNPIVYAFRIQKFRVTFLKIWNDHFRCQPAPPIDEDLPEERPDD

B2 bradykinin receptor = biological target: T4, B2 bradykinin receptor (Homo sapiens, UniProt P30411)
T4 sequence (P30411 whole entry): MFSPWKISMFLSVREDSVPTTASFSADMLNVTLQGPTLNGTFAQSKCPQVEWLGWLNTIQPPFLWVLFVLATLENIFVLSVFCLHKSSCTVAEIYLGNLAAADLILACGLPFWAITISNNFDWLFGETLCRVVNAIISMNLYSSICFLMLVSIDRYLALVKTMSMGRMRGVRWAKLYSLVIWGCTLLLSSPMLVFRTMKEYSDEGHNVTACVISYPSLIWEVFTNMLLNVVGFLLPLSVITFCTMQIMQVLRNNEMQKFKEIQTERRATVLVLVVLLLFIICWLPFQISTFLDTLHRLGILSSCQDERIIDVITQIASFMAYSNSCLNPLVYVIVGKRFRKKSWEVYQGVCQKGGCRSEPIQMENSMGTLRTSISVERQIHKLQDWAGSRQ

[4] = biological target: Sodium-dependent noradrenaline transporter (Homo sapiens, UniProt P23975)
Sodium-dependent noradrenaline transporter, sequence (P23975 whole entry): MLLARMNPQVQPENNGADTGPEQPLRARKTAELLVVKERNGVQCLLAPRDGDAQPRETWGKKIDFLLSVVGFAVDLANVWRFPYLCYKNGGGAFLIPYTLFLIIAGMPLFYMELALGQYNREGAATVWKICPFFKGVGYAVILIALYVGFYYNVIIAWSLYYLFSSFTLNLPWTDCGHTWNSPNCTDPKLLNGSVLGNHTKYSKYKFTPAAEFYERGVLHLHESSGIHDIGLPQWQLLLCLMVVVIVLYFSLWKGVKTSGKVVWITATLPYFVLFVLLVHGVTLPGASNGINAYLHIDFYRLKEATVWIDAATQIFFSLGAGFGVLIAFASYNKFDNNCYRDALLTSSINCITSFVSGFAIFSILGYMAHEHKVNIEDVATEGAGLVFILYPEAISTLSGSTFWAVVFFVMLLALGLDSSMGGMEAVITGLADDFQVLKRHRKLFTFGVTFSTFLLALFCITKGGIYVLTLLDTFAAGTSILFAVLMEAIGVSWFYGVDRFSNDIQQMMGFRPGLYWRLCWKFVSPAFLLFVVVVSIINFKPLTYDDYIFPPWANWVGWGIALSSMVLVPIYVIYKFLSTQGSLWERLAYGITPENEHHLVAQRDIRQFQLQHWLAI

Adenosine receptor A3 = biological target: T5, Adenosine receptor A3 (Homo sapiens, UniProt P0DMS8)
T5 sequence (P0DMS8 whole entry): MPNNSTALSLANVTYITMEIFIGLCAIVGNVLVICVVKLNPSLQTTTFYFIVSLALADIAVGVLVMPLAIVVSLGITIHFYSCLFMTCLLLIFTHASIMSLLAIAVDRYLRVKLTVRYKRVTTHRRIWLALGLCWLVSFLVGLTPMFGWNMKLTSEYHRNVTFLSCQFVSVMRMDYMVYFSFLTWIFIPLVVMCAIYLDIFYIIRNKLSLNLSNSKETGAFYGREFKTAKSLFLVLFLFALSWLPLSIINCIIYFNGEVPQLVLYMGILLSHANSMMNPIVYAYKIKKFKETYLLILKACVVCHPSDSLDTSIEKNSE

[5] = biological target: T6, Muscarinic acetylcholine receptor M1 (Homo sapiens, UniProt P11229); assay type: functional
T6 sequence (P11229 whole entry): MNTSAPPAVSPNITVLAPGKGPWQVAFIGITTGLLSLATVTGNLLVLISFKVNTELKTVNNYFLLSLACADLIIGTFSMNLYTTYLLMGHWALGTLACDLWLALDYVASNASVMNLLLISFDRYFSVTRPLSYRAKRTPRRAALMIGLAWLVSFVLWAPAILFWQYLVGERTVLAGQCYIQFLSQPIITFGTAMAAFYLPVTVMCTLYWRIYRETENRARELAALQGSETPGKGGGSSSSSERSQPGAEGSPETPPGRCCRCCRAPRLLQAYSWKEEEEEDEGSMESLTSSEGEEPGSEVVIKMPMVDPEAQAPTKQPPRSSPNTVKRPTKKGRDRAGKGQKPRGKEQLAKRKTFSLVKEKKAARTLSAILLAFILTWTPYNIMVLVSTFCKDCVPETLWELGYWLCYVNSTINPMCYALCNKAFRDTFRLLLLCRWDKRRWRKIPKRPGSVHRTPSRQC

Mu-type opioid receptor = Mu-type opioid receptor (Homo sapiens, UniProt P35372)
Mu-type opioid receptor, sequence (P35372 whole entry): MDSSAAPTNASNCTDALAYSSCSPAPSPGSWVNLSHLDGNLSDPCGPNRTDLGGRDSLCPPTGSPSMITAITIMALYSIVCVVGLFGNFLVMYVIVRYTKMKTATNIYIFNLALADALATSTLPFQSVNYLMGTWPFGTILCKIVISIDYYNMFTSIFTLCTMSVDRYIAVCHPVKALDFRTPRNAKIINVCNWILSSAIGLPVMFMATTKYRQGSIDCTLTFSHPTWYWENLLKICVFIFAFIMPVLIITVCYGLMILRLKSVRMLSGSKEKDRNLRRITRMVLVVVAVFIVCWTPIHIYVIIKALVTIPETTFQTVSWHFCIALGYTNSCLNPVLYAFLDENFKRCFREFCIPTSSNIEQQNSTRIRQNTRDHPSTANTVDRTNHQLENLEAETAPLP

Cannabinoid receptor 1 [6] = biological target: T1, Cannabinoid receptor 1
Melanocortin receptor 4 = Melanocortin receptor 4 (Homo sapiens, UniProt P32245)
Melanocortin receptor 4, sequence (P32245 whole entry): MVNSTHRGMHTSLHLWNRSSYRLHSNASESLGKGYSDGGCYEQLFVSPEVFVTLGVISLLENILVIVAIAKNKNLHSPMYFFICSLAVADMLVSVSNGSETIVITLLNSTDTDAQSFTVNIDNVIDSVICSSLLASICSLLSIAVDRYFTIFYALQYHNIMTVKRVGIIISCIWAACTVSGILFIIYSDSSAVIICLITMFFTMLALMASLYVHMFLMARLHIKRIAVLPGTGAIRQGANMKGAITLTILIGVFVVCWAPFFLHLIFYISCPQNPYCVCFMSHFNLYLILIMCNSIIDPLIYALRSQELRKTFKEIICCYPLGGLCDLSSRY
Note: assay procedure not described here.

cGMP-inhibited 3',5'-cyclic phosphodiesterase 3A, sequence (Q14432 whole entry): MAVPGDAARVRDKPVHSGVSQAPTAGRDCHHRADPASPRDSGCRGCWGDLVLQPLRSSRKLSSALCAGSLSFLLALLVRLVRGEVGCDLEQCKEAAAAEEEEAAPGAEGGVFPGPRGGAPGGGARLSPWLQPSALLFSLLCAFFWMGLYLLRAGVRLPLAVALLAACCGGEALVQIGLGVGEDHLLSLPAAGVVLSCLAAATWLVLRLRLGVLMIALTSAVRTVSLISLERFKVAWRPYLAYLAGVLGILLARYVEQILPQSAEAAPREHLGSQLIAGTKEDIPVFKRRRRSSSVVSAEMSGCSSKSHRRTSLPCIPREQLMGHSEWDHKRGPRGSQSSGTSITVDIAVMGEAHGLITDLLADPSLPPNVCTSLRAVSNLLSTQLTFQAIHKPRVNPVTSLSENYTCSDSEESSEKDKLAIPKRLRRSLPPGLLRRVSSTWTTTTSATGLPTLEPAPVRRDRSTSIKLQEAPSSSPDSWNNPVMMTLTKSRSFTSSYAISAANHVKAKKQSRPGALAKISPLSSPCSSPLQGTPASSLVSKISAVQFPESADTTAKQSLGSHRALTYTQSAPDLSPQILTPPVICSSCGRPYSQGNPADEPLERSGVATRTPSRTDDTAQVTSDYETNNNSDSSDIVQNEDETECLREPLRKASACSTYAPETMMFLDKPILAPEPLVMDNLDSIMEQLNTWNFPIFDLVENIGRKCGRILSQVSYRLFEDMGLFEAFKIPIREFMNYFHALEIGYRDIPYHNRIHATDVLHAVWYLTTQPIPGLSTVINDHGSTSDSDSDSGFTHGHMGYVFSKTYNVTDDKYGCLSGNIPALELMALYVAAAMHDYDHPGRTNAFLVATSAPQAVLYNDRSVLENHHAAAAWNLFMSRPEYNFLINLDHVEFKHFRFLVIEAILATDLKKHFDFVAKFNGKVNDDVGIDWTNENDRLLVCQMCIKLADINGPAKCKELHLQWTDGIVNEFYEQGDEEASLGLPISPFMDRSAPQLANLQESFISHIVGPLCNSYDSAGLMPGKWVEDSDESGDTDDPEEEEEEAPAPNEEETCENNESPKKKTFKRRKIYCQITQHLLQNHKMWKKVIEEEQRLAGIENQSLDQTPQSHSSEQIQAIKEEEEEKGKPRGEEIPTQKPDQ
T1 sequence (P21554 whole entry): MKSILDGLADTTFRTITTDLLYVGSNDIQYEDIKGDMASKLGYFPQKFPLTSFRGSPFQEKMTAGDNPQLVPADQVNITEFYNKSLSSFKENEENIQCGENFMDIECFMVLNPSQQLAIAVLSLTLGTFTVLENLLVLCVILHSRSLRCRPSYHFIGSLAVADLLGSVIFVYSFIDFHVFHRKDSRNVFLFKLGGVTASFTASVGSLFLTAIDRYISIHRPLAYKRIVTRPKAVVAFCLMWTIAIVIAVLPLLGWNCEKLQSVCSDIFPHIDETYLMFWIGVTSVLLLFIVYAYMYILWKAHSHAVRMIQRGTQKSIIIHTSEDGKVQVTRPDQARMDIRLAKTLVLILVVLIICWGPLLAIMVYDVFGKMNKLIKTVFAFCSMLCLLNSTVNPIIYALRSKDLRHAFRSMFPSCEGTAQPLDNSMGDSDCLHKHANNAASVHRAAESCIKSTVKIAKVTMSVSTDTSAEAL

SMILES	AC50 [1]	AC50 (Cannabinoid receptor 1 [2])	AC50 [3]	AC50 (Adenosine receptor A1)	AC50 (B2 bradykinin receptor)	AC50 [4]	AC50 (Adenosine receptor A3)	AC50 [5]	AC50 (Mu-type opioid receptor)	AC50 (Cannabinoid receptor 1 [6])	AC50 (Melanocortin receptor 4)
Brc1c(NC2=NCCN2)ccc2nccnc12 [BRIMONIDINE]	> 30 µM	> 30 µM	> 30 µM	> 30 µM	> 30 µM	> 30 µM	> 30 µM	–	–	–	–
NC(=O)CN1CC(O)CC1=O (stereo not drawn) [OXIRACETAM]	> 30 µM	> 30 µM	> 30 µM	> 30 µM	> 30 µM	> 30 µM	> 30 µM	> 30 µM	–	–	–
C[C@H]1COc2c(C3(N)CC3)c(F)cc3c(=O)c(C(=O)O)cn1c23 [PAZUFLOXACIN]	> 30 µM	–	> 30 µM	> 10 µM	> 10 µM	> 10 µM	> 10 µM	> 10 µM	> 30 µM	> 10 µM	> 10 µM
NC(=O)OCC(COC(N)=O)c1ccccc1 [FELBAMATE]	> 30 µM	–	> 10 µM	> 10 µM	> 10 µM	> 10 µM	> 10 µM	> 10 µM	> 30 µM	> 10 µM	> 10 µM
Clc1ccccc1C(c1ccccc1)(c1ccccc1)n1ccnc1 [CLOTRIMAZOLE]	–	> 30 µM	–	–	–	19.9 µM	–	–	–	> 10 µM	–
CC(C)(C)NCC(O)COc1cccc2c1CCC(=O)N2 (stereo not drawn) [CARTEOLOL]	> 30 µM	> 30 µM	> 10 µM	> 10 µM	> 10 µM	> 10 µM	> 10 µM	> 10 µM	> 30 µM	–	> 10 µM
CC1(C)CCC(CN2CCN(c3ccc(C(=O)NS(=O)(=O)c4ccc(NCC5CCOCC5)c([N+](=O)[O-])c4)c(Oc4cnc5[nH]ccc5c4)c3)CC2)=C(c2ccc(Cl)cc2)C1 [VENETOCLAX]	> 30 µM	–	> 30 µM	–	–	11 µM	2.3 µM	> 30 µM	–	–	–
O=C1C(O)=C([C@H]2CC[C@H](c3ccc(Cl)cc3)CC2)C(=O)c2ccccc21 [ATOVAQUONE]	> 30 µM	–	> 30 µM	> 30 µM	> 30 µM	> 30 µM	> 30 µM	> 30 µM	–	> 30 µM	–
Cc1nnc2n1-c1ccc(Cl)cc1C(c1ccccc1Cl)=NC2 [TRIAZOLAM]	> 30 µM	> 30 µM	> 30 µM	> 30 µM	> 30 µM	> 30 µM	> 30 µM	> 10 µM	> 30 µM	–	> 30 µM
Nc1nc(Cl)nc2c1ncn2[C@H]1C[C@H](O)[C@@H](CO)O1 [CLADRIBINE]	28 µM	> 30 µM	> 30 µM	> 30 µM	> 30 µM	> 30 µM	> 30 µM	–	–	–	–
CC/C(=C(\c1ccccc1)c1ccc(OCCN(C)C)cc1)c1ccccc1 [TAMOXIFEN]	–	–	–	–	–	8.83 µM	–	–	> 30 µM	–	–
CC(CC1c2ccccc2CCc2ccccc21)CN(C)C (stereo not drawn) [BUTRIPTYLINE]	> 30 µM	> 30 µM	–	–	–	–	–	0.23 µM	–	–	–
COc1cccc(C2(O)CCCCC2CN(C)C)c1 (stereo not drawn) [TRAMADOL]	> 30 µM	> 30 µM	> 30 µM	> 30 µM	> 30 µM	> 10 µM	> 30 µM	–	–	> 10 µM	> 30 µM
COc1ccc2c3c1O[C@H]1[C@@H](O)CC[C@H]4[C@@H](C2)N(C)CC[C@@]341 [DIHYDROCODEINE]	> 30 µM	> 30 µM	–	–	–	–	–	> 30 µM	–	–	–
C#C[C@]1(O)CC[C@H]2[C@@H]3[C@H](C)CC4=C(CCC(=O)C4)[C@H]3CC[C@@]21C [TIBOLONE]	> 30 µM	> 30 µM	4.5 µM	> 30 µM	> 30 µM	> 30 µM	8.1 µM	–	–	–	–
Cc1cc(C(C)(C)C)c(O)c(C)c1CC1=NCCN1 [OXYMETAZOLINE]	> 30 µM	> 30 µM	> 30 µM	–	–	> 30 µM	> 30 µM	–	> 30 µM	–	–
Cc1c(OCC(F)(F)F)ccnc1C[S+]([O-])c1nc2ccccc2[nH]1 (stereo not drawn) [LANSOPRAZOLE]	> 10 µM	> 30 µM	> 30 µM	16.8 µM	> 30 µM	> 10 µM	7.77 µM	–	4 µM	–	> 30 µM
COc1ccc(CCNCC(O)COc2cccc(C)c2)cc1OC (stereo not drawn) [BEVANTOLOL]	> 30 µM	> 30 µM	> 10 µM	> 10 µM	> 10 µM	> 30 µM	> 10 µM	> 10 µM	> 10 µM	> 10 µM	> 10 µM
Fc1ccc(C(c2ccccc2)(c2ccccc2F)n2ccnc2)cc1 (stereo not drawn) [FLUTRIMAZOLE]	> 30 µM	> 30 µM	> 30 µM	> 30 µM	> 30 µM	> 30 µM	15 µM	> 30 µM	–	–	–
C[C@@H]1O[C@@H](O[C@@H]2C=C3CC[C@@H]4[C@H](CC[C@]5(C)[C@@H](c6ccc(=O)oc6)CC[C@]45O)[C@@]3(C)CC2)[C@H](O)[C@H](O)[C@H]1O [PROSCILLARIDIN]	> 30 µM	> 30 µM	13 µM	> 30 µM	> 30 µM	> 30 µM	> 30 µM	–	–	–	–
